Measured values from patent US20110243846A1, “BENZOTHIAZOLE AMIDES FOR DETECTION OF AMYLOID BETA” (priority 2008, published 2011).

System: Aβ plaques in cortex sections of Alzheimer's disease patients
Experiment: Autoradiographical analysis of binding to human brain sections
Conditions: F-18 labelled compound; for Autoradiographical analysis of binding to cryosections from cortex: cryosections from cortex of AD patients vs controls without Aβ plaques (HC/FTD)
Description: Fresh frozen as well as paraffin embedded sections of the frontal lobe from Alzheimer's dementia patients, frontotemporal dementia patients and age matched controls were used for the study. Frozen sections, sliced at 18 μm thickness on a cryostate (Leica, Germany) and paraffin sections, sliced on a sliding microtom (Leica) at a thickness of 6 μm, were mounted onto glass slides (Superfrost Plus, Fa.Menzel, Braunschweig Germany). Frozen sections were allowed to adhere to the slides for several nights at −20° C. The paraffin sections were deparaffinized using routine histological methods. For binding studies sections were incubated with the F-18 labeled test compound at 10 Bq/μl diluted in 25 mM Hepes buffer, pH 7.4, 0.1% (BSA) (200-300 μl/slide) for 1.5 hour at room temperature in a humidified chamber. For blocking experiments a 1000-fold access of the unlabeled test substance was added to the incubation mixture. After hybridization, sections were washed four times with Hepes buffer, 0.1% BSA (or alternatively two times with 40% ethanol) and finally dipped two times into dest. water for 10 sec. The air-dried sections were exposed to imaging plates and signals were detected by a phosphoimager device (Fuji BAS5000).

COc1ccc2nc(NC(=O)c3ccc([18F])cc3)sc2c1 [compound 1f, 4-(^18F)fluoro-N-(6-methoxy-1,3-benzothiazol-2-yl)benzamide]
Autoradiographical analysis of binding to cryosections from cortex: Specific binding in plaque-rich regions of AD samples

COc1ccc2nc(NC(=O)c3cc([18F])ccn3)sc2c1 [compound 2c, 4-(^18F)fluoro-N-(6-methoxy-1,3-benzothiazol-2-yl)pyridine-2-carboxamide]
Autoradiographical analysis of binding to cryosections from cortex: Specific binding in plaque-rich regions of AD samples

COc1ccc2nc(NC(=O)c3cccc([18F])n3)sc2c1 [compound 3c, 6-[^18F]-fluoro-N-(6-methoxy-1,3-benzothiazol-2-yl)pyridine-2-carboxamide]
Autoradiographical analysis of binding to paraffine-sections from cortex (paraffine-sections from cortex of AD patients vs controls without Aβ plaques (HC/FTD)): Specific binding in plaque-rich regions of AD samples
